Data on eleven compounds can be found in ChEMBL document CHEMBL2406958, “Development of a chimeric c-Src kinase and HDAC inhibitor” (ACS Med Chem Lett, 2013).

For data set [1], the target named is T1, Histone deacetylase 1 (Homo sapiens, UniProt Q13547). The experiment in a line: Inhibition of HDAC1 (unknown origin) by Fluor de Lys based assay.
A short description of data set [2]: Therapeutic index, ratio of GI50 for human HMEC to GI50 for human SK-BR-3 cells. The note with it: HMEC cells versus SK-BR-3 cells, read-out: RatioGI50.
The subject of a further data set is HMEC. The experiment in a line: Cytotoxicity against human HMEC after 72 hrs by WST1 assay. In kind it is cell-based.
The next data set has as its system SK-BR-3. The experiment in a line: Cytotoxicity against human SK-BR-3 cells after 72 hrs by WST1 assay. In kind it is functional.
Data set [3] has as its target T2, Proto-oncogene tyrosine-protein kinase Src (Homo sapiens, UniProt P12931). The experiment in a line: Inhibition of c-Src (unknown origin) by fluorescence assay.
The next data set deals with SW-620. The experiment in a line: Cytotoxicity against human SW620 cells after 48 hrs by SRB assay. In kind it is functional. The note with it: SW-620, 48 h.
In another data set the test system is Malme-3M. The experiment in a line: Cytotoxicity against human MALME-3M cells after 48 hrs by SRB assay. It counts as functional. For orientation: In SRB staining, fixed cells bind dye roughly in proportion to their protein.
The next data set concerns HCT-116. The experiment in a line: Cytotoxicity against human HCT116 cells after 48 hrs by SRB assay. The note with it: HCT-116, 48 h. It counts as functional.
A further data set concerns Hs-578T. The experiment in a line: Cytotoxicity against human Hs578T cells after 48 hrs by SRB assay. It counts as functional.
The test system of a further data set is MDA-MB-231. The experiment in a line: Cytotoxicity against human MDA-MB-231 cells after 48 hrs by SRB assay. It counts as functional. The note with it: MDA-MB-231, 48 h.
A further data set has as its system DU-145. The experiment in a line: Cytotoxicity against human DU145 cells after 48 hrs by SRB assay. The following applies: DU-145, 48 h. In kind it is functional.
The next data set deals with MCF7. The experiment in a line: Cytotoxicity against human MCF7 cells after 48 hrs by SRB assay. In kind it is functional. The following applies: MCF7, 48 h.
The next data set deals with U-251. The experiment in a line: Cytotoxicity against human U251 cells after 48 hrs by SRB assay. In kind it is functional. The following applies: U-251, 48 h.
A further data set concerns KM12. The experiment in a line: Cytotoxicity against human KM12 cells after 48 hrs by SRB assay. It counts as functional. The note with it: KM12, 48 h.
Data set [4] addresses Tyrosine-protein kinase HCK (Homo sapiens, UniProt P08631). The experiment in a line: Inhibition of HCK (unknown origin).
Data set [5] in a line: Cytotoxicity against human NCI60 cells after 48 hrs by SRB assay. The following applies: NCI60, 48 h. It counts as functional.
The target of a further data set is Histone deacetylase 11 (Homo sapiens, UniProt Q96DB2). The experiment in a line: Inhibition of HDAC11 (unknown origin) using fluorogenic peptide from p53 residues (379 to 382) (RHKK(Ac)) as substrate by fluorescence assay.
Chain of Histone deacetylase 11 (Q96DB2 whole entry, the tested form may be a part): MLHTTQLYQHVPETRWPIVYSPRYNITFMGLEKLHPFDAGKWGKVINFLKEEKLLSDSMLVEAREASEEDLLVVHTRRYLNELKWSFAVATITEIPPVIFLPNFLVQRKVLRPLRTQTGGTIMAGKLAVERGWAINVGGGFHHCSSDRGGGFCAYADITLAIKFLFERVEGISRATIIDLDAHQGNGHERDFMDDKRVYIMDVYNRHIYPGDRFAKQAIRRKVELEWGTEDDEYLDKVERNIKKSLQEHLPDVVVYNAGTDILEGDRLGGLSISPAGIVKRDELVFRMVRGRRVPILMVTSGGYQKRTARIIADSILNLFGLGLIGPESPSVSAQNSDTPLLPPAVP
Data set [6] deals with Polyamine deacetylase HDAC10 (Homo sapiens, UniProt Q969S8). The experiment in a line: Inhibition of HDAC10 (unknown origin) using fluorogenic peptide from p53 residues (379 to 382) (RHKK(Ac)) as substrate by fluorescence assay.
Chain of Polyamine deacetylase HDAC10 (Q969S8 whole entry, the tested form may be a part): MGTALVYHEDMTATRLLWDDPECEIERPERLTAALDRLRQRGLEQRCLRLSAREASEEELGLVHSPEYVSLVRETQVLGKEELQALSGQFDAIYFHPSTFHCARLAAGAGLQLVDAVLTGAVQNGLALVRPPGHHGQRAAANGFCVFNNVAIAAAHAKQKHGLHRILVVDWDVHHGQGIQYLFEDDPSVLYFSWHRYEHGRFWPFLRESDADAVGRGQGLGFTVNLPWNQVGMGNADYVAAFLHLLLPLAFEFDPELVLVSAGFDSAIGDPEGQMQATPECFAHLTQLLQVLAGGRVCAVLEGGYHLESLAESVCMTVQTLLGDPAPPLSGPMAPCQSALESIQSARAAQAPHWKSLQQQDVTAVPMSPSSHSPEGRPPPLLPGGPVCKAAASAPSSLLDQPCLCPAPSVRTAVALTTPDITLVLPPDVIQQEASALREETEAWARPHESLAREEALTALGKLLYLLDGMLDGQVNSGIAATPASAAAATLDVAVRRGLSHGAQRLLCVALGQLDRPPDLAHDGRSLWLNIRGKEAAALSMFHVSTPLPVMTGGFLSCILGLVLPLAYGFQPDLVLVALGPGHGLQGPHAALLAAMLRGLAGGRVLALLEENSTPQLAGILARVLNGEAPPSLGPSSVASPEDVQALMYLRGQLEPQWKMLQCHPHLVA
Another data set addresses Histone deacetylase 9 (Homo sapiens, UniProt Q9UKV0). The experiment in a line: Inhibition of HDAC9 (unknown origin) using Boc-Lys(trifluoroacetyl)-AMC as substrate by fluorescence assay.
Another data set concerns the target Histone deacetylase 8 (Homo sapiens, UniProt Q9BY41). The experiment in a line: Inhibition of HDAC8 (unknown origin) using fluorogenic peptide from p53 residues (379 to 382) (RHK(Ac)K(Ac)) as substrate by fluorescence assay.
Data set [7] concerns the target Protein deacetylase HDAC6 (Homo sapiens, UniProt Q9UBN7). The experiment in a line: Inhibition of HDAC6 (unknown origin) using fluorogenic peptide from p53 residues (379 to 382) (RHKK(Ac)) as substrate by fluorescence assay.
For a further data set, the target named is Histone deacetylase 5 (Homo sapiens, UniProt Q9UQL6). The experiment in a line: Inhibition of HDAC5 (unknown origin) using Boc-Lys(trifluoroacetyl)-AMC as substrate by fluorescence assay.
Another data set addresses Histone deacetylase 4 (Homo sapiens, UniProt P56524). The experiment in a line: Inhibition of HDAC4 (unknown origin) using Boc-Lys(trifluoroacetyl)-AMC as substrate by fluorescence assay.
In a further data set the target is Histone deacetylase 3 (Homo sapiens, UniProt O15379). The experiment in a line: Inhibition of HDAC3 (unknown origin) using fluorogenic peptide from p53 residues (379 to 382) (RHKK(Ac)) as substrate by fluorescence assay.
Chain of Histone deacetylase 3 (O15379 whole entry, the tested form may be a part): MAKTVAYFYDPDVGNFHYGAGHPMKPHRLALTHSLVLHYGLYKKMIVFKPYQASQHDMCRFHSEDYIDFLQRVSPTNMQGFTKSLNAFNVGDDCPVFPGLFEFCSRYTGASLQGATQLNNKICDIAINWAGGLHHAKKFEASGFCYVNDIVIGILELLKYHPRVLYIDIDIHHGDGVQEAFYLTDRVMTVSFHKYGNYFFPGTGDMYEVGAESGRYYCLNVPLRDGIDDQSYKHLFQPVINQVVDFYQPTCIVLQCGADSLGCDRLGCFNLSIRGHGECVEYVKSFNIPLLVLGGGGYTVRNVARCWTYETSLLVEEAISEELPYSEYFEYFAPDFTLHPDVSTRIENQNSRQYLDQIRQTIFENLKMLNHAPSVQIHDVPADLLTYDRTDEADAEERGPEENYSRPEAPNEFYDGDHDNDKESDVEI
The target in a further data set is Histone deacetylase 2 (Homo sapiens, UniProt Q92769).
The target in data set [8] is T1, Histone deacetylase 1. The experiment in a line: Inhibition of HDAC1 (unknown origin) using fluorogenic peptide from p53 residues (379 to 382) (RHKK(Ac)) as substrate by fluorescence assay.
Data set [9] addresses T1, Histone deacetylase 1. The experiment in a line: Inhibition of human recombinant HDAC1 using Ac-Leu-Gly-Lys(Ac)AMCA as substrate after 30 mins by fluorescence assay.
Data set [10] concerns the target T2, Proto-oncogene tyrosine-protein kinase Src. The experiment in a line: Inhibition of c-Src (unknown origin) after 10 mins by fluorimetric assay.
Data set [11] addresses Tyrosine-protein kinase ABL1 (Homo sapiens, UniProt P00519). The experiment in a line: Inhibition of c-Abl (unknown origin).

T1 sequence (Q13547 whole entry): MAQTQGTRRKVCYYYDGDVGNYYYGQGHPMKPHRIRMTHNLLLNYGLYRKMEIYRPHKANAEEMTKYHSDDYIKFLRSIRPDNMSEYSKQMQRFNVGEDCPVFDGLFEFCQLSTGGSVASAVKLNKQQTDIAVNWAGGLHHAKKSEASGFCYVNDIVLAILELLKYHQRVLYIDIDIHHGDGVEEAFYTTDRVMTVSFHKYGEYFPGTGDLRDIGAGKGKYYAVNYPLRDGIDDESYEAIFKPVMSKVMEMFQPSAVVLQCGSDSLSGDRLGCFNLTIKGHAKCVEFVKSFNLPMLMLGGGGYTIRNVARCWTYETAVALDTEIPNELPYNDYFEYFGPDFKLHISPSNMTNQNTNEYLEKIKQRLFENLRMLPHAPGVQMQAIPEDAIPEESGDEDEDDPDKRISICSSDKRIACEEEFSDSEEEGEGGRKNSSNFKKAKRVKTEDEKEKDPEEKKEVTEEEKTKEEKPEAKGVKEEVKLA
T2 sequence (P12931 2-536 limits assumed): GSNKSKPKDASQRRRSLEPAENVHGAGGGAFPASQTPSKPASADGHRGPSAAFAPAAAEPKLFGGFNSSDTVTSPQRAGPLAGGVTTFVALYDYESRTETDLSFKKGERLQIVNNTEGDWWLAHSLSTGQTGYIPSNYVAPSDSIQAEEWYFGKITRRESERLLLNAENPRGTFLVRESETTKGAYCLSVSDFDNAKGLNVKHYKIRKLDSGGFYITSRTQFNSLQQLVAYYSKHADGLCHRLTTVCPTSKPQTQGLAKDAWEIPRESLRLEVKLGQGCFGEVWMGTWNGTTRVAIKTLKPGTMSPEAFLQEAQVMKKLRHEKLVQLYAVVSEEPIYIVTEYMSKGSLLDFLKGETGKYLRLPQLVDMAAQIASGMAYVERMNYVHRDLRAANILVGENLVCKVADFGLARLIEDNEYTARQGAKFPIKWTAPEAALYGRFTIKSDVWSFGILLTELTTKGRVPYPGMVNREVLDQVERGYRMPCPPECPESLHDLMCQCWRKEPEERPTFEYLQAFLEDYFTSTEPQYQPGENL
Chain of Histone deacetylase 4 (P56524 whole entry, the tested form may be a part): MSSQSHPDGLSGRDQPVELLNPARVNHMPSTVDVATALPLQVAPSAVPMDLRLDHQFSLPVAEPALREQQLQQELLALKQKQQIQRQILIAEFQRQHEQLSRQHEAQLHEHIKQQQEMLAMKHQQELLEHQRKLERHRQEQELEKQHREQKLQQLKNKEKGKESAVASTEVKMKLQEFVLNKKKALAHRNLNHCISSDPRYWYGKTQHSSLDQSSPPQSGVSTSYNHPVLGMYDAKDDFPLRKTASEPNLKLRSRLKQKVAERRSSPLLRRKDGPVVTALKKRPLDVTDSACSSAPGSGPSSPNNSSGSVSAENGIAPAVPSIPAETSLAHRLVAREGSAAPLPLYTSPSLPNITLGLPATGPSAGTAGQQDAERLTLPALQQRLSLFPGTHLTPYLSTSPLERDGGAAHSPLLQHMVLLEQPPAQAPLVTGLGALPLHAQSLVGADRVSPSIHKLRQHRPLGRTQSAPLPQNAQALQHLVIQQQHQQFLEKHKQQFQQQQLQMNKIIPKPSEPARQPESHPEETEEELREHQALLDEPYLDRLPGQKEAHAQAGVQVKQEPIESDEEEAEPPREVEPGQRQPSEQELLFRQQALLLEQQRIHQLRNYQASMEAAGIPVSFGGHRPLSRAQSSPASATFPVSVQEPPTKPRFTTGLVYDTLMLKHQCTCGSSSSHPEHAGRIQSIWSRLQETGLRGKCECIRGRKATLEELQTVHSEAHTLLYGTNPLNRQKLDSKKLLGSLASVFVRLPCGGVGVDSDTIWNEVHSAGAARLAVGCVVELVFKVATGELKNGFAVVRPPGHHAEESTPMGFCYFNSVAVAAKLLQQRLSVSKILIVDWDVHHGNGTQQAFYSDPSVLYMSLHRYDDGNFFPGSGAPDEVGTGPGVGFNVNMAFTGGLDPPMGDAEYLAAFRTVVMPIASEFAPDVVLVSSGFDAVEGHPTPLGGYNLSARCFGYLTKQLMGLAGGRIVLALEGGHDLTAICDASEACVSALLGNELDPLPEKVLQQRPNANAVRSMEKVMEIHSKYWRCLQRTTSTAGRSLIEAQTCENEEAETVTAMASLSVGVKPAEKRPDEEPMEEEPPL
Chain of Protein deacetylase HDAC6 (Q9UBN7 whole entry, the tested form may be a part): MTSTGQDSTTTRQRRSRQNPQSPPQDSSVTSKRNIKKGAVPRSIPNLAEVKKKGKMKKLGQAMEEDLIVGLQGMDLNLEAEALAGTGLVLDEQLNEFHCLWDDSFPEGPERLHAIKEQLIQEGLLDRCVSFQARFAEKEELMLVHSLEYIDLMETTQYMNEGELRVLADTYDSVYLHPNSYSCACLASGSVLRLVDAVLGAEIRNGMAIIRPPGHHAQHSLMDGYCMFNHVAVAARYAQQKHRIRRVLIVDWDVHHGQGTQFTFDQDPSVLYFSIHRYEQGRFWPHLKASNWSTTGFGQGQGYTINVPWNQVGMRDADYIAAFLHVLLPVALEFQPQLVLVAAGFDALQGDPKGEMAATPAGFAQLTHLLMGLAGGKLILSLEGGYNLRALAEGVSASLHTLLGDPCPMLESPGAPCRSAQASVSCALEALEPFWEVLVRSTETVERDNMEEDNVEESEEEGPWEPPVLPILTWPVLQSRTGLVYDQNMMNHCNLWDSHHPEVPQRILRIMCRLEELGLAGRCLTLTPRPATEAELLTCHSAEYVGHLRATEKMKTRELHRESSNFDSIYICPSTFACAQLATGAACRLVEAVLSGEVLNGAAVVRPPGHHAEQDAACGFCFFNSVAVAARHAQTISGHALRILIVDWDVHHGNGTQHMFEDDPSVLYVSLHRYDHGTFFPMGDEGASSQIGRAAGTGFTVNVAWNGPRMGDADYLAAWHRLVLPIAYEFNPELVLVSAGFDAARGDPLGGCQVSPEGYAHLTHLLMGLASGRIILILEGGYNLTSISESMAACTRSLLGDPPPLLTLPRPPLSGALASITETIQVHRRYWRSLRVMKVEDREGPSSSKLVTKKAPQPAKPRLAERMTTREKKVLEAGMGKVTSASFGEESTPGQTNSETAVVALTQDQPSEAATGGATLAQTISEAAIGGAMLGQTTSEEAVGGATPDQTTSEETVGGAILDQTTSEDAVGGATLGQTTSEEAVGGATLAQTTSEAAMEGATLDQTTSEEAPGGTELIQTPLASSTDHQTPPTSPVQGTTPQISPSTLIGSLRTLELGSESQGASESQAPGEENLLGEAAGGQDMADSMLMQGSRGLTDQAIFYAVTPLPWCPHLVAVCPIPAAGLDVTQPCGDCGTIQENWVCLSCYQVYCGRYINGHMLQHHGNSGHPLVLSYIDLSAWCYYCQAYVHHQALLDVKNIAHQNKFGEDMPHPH

For orientation: Ki means the dissociation constant of the complex between target and ligand, obtained from inhibition or displacement. The compound `O=C(CCCCCn1nncc1-c1ccccc1)NO` displayed a Ki on Histone deacetylase 1 [1] of 45 nM.

Usually GI50 stands for the concentration that inhibits growth by half. Read a low GI50 as more potent growth inhibition. As for `Nc1ncnc2c1c(-c1ccc(Cl)cc1)nn2-c1cccc(-c2cnnn2Cc2cccc(-c3ccccc3)c2)c1`, in data set [2], the selectivity ratio was found to be 0.9. The GI50 in the data set on HMEC is 4300 nM; in the data set on SK-BR-3 (Homo sapiens, SK-BR-3, 72 h), 4800 nM.

As to `Nc1ncnc2c1c(-c1ccc(Cl)cc1)nn2-c1cccc(-c2cn(CCCCCC(=O)NO)nn2)c1`, the Ki is 0.62 nM at Histone deacetylase 1 [1] and 371 nM in [3].

By IC50 is commonly meant the concentration needed to halve the response being measured. As to `Nc1ncnc2c1c(-c1ccc(Cl)cc1)nn2-c1cccc(-c2cnnn2CCCCCC(=O)NO)c1`, the GI50 in the data set on SW-620 was found to be 250 nM; with Malme-3M, 70 nM; in the data set on HCT-116, 220 nM; in the data set on Hs-578T, 170 nM; in the data set on MDA-MB-231, 390 nM; in the data set with DU-145, 390 nM. For the same compound, the GI50 with MCF7 amounted to 350 nM; in the data set with U-251, 280 nM; in the data set on KM12 it was 470 nM; in data set [5], 260 nM; in the data set on HMEC it was 4700 nM; in the data set with SK-BR-3 (Homo sapiens, SK-BR-3, 72 h), 200 nM. The Ki turned out to be 504 nM in [4]; 0.26 nM on Histone deacetylase 1 [9]; 138 nM in [10]; 2350 nM in data set [11]; 0.26 nM on Histone deacetylase 1 [1]; 138 nM in data set [3]. Further, the half-maximal inhibitory concentration (IC50) against Histone deacetylase 11 was found to be 224 nM; in data set [6] it was 51 nM; against Histone deacetylase 9, 28000 nM; against Histone deacetylase 8 it was 2310 nM; in data set [7] it was 2.7 nM; at Histone deacetylase 5 it was 3890 nM. Moreover, the IC50 at Histone deacetylase 4 is 3980 nM; at Histone deacetylase 3, 19 nM; on Histone deacetylase 2, 231 nM; on Histone deacetylase 1 [8] it was 86 nM.

`Nc1ncnc2c1c(-c1ccc(Cl)cc1)nn2-c1cccc(-c2cnnn2CCCCCCC(=O)NO)c1`: the Ki at Histone deacetylase 1 [9] came out at 0.82 nM; in data set [10] it was 190 nM.

Turning to `Nc1ncnc2c1c(-c1ccc(Cl)cc1)nn2-c1cccc(-c2cnnn2CCCCCCCC(=O)NO)c1`, the Ki at Histone deacetylase 1 [9] came out at 9.8 nM.

As for `Nc1ncnc2c1c(-c1ccc(Cl)cc1)nn2-c1cccc(-c2cnnn2Cc2ccc(/C=C/C(=O)NO)cc2)c1`, the results for the inhibition constant Ki (at Histone deacetylase 1 [9]; in [10]) were 35 nM and 4300 nM, respectively.

With `Nc1ncnc2c1c(-c1ccc(Cl)cc1)nn2-c1cccc(-c2cnnn2Cc2cccc(/C=C/C(=O)NO)c2)c1`, the inhibitory constant (Ki) on Histone deacetylase 1 [9] stood at 23 nM.

The compound `Nc1ncnc2c1c(-c1ccc(Cl)cc1)nn2-c1ccccc1` showed a Ki in data set [3] of 605 nM.

As for `Cc1nc(Nc2ncc(C(=O)Nc3c(C)cccc3Cl)s2)cc(N2CCN(CCO)CC2)n1` [DASATINIB], the GI50 worked out at 8430 nM in the data set with SW-620; 6610 nM in the data set on Malme-3M; 3700 nM with HCT-116; 30 nM in the data set on Hs-578T; 20 nM with MDA-MB-231; 160 nM in the data set on DU-145. Besides, the GI50 came out at 8320 nM in the data set with MCF7, 2810 nM with U-251, 5700 nM in data set [5] and 1800 nM in the data set with HMEC.

`O=C(CCCCCCC(=O)Nc1ccccc1)NO` [VORINOSTAT]: the GI50 in the data set with HMEC was 5800 nM; with SK-BR-3, 1200 nM.
